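Interpolation was linear, between the two tested concentrations surrounding the appropriate level; five concentrations were tested over 48 hours in 96-well plates. GI50 marks 50% less growth. TGI denotes the concentration required for complete inhibition of growth.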
Legend:
Assay in all cases: NCI anticancer screen, dose series, 48 h
[1] = tested on: MDA-MB-231 breast
[2] = tested on: K-562 leukemia
[3] = tested on: HOP-62 NSCLC
[4] = tested on: EKVX NSCLC
[5] = tested on: NCI-H226 lung
[6] = tested on: SF-539 CNS
[7] = tested on: KM12 colon
[8] = tested on: SF-268 CNS
[9] = tested on: A549 NSCLC
[10] = tested on: MCF7 breast
[11] = tested on: NCI-H460 lung
[12] = tested on: NCI-H23 lung
[13] = tested on: RXF 393 renal
[14] = tested on: MALME-3M melanoma
[15] = tested on: LOX IMVI melanoma
[16] = tested on: T-47D breast
[17] = tested on: HOP-92 NSCLC
[18] = tested on: PC-3 prostate
[19] = tested on: HCC-2998 colon
[20] = tested on: HCT-15 colon
[21] = tested on: UO-31 renal
[22] = tested on: SNB-75 CNS
[23] = tested on: U251 CNS
[24] = tested on: OVCAR-4 ovarian
[25] = tested on: UACC-62 melanoma
[26] = tested on: SNB-19 CNS
[27] = tested on: SN12C renal
[28] = tested on: OVCAR-5 ovarian
[29] = tested on: HS 578T breast
[30] = tested on: HL-60(TB) leukemia
[31] = tested on: COLO 205 colon
[32] = tested on: SK-OV-3 ovarian
[33] = tested on: NCI/ADR-RES ovarian
[34] = tested on: IGROV1 ovarian
[35] = tested on: HT29 colon
[36] = tested on: SW-620 colon
[37] = tested on: SR leukemia
[38] = tested on: OVCAR-8 ovarian
[39] = tested on: DU-145 prostate
[40] = tested on: SF-295 CNS
[41] = tested on: SK-MEL-2 melanoma
[42] = tested on: MOLT-4 leukemia
[43] = tested on: M14 melanoma
[44] = tested on: A498 renal
[45] = tested on: NCI-H522 lung
[46] = tested on: CAKI-1 renal
[47] = tested on: SK-MEL-5 melanoma
[48] = tested on: HCT-116 colon
[49] = tested on: ACHN renal
[50] = tested on: CCRF-CEM leukemia
[51] = tested on: MDA-MB-435
[52] = tested on: RPMI-8226 leukemia
[53] = tested on: SK-MEL-28 melanoma
[54] = tested on: TK-10 renal
[55] = tested on: UACC-257 melanoma
[56] = tested on: 786-0 renal

Which results are given for C=CCn1c(SCC(=O)Nc2ccc(C(=O)/C=C/c3cc(OC)c(OC)c(OC)c3)cc2)nnc1-c1c[nH]c2ccccc12?
GI50 [1]: 5.58 µM; TGI [1]: > 100 µM; GI50 [2]: 0.991 µM; TGI [2]: > 100 µM; GI50 [3]: 2.06 µM; TGI [3]: 5.22 µM; GI50 [4]: 3.69 µM; TGI [4]: > 100 µM; GI50 [5]: 2.56 µM; TGI [5]: 56.8 µM; GI50 [6]: 1.81 µM; TGI [6]: 3.64 µM; GI50 [7]: 1.48 µM; TGI [7]: 2.98 µM; GI50 [8]: 3.43 µM; TGI [8]: 18.6 µM; GI50 [9]: 3.04 µM; TGI [9]: 12.3 µM; GI50 [10]: 0.361 µM; TGI [10]: 1.86 µM; GI50 [11]: 3.1 µM; TGI [11]: 10.1 µM; GI50 [12]: 1.85 µM; TGI [12]: 4.16 µM; GI50 [13]: 1.53 µM; TGI [13]: 3.34 µM; GI50 [14]: 3.2 µM; TGI [14]: 24.9 µM; GI50 [15]: 0.904 µM; TGI [15]: 2.34 µM; GI50 [16]: 2.42 µM; TGI [16]: > 100 µM; GI50 [17]: 4.24 µM; TGI [17]: > 100 µM; GI50 [18]: 3.09 µM; TGI [18]: > 100 µM; GI50 [19]: 1.65 µM; TGI [19]: 3.09 µM; GI50 [20]: 2.08 µM; TGI [20]: 11.1 µM; GI50 [21]: 1.63 µM; TGI [21]: 4.77 µM; GI50 [22]: 3.5 µM; TGI [22]: 17.3 µM; GI50 [23]: 1.61 µM; TGI [23]: 3.64 µM; GI50 [24]: 2.79 µM; TGI [24]: 8.91 µM; GI50 [25]: 2.55 µM; TGI [25]: 10.4 µM; GI50 [26]: 3 µM; TGI [26]: 13.3 µM; GI50 [27]: 3.71 µM; TGI [27]: > 100 µM; GI50 [28]: 2.06 µM; TGI [28]: 4.34 µM; GI50 [29]: 4.35 µM; TGI [29]: > 100 µM; GI50 [30]: 2.18 µM; TGI [30]: 8.04 µM; GI50 [31]: 1.87 µM; TGI [31]: 4.07 µM; GI50 [32]: 4.46 µM; TGI [32]: 19.3 µM; GI50 [33]: > 100 µM; TGI [33]: > 100 µM; GI50 [34]: 1.6 µM; TGI [34]: 4.06 µM; GI50 [35]: 1.7 µM; TGI [35]: 3.3 µM; GI50 [36]: 2.08 µM; TGI [36]: 5.85 µM; GI50 [37]: 0.522 µM; TGI [37]: > 100 µM; GI50 [38]: 3.44 µM; TGI [38]: > 100 µM; GI50 [39]: 3.19 µM; TGI [39]: 10.8 µM; GI50 [40]: 3.14 µM; TGI [40]: 11.6 µM; GI50 [41]: 2.25 µM; TGI [41]: 6.38 µM; GI50 [42]: 2.7 µM; TGI [42]: > 100 µM; GI50 [43]: 2.66 µM; TGI [43]: 8.39 µM; GI50 [44]: 1.5 µM; TGI [44]: 2.92 µM; GI50 [45]: 2.15 µM; TGI [45]: 4.99 µM; GI50 [46]: 3.35 µM; TGI [46]: > 100 µM; GI50 [47]: 3.52 µM; TGI [47]: 13.5 µM; GI50 [48]: 0.376 µM; TGI [48]: 1.53 µM; GI50 [49]: 1.97 µM; TGI [49]: 4.33 µM; GI50 [50]: 2.24 µM; TGI [50]: > 100 µM; GI50 [51]: 1.82 µM; TGI [51]: 4.76 µM; GI50 [52]: 0.288 µM; TGI [52]: 1.26 µM; GI50 [53]: 2.32 µM; TGI [53]: 5.61 µM; GI50 [54]: 5.8 µM; TGI [54]: 34.3 µM; GI50 [55]: 3.5 µM; TGI [55]: 19.8 µM; GI50 [56]: 1.84 µM; TGI [56]: 3.43 µM
